Results published in US8586551B2, “18-membered macrocycles and analogs thereof” (Optimer Pharmaceuticals, Inc., priority 2005, dated 2013).
Where two headings read alike, the source gives them in different places.

Key:
Clostridium spp. (all) = test: MIC against anaerobes: Clostridium spp. (all); format: cell-based
Experimental: (§1) The in vitro activity of OPT-80 was determined against 350 anaerobes. The experimental procedure for which is outlined in Antimicrobial Agents and Chemotherapy, 2004, 48: 4430-4434, which is hereby incorporated by reference in its entirety.
(§2) All organisms, including the 21 C. difficile strains, were separate isolates and not clonally related. All quality-control gram-negative and -positive strains recommended by NCCLS were included with each run: in every case, results (where available) were in range.

Micromonas micros = test: MIC against anaerobes: Micromonas micros; format: cell-based; conditions: Micromonas micros (14)
[1] = system: All anaerobic gram-positive species; test: MIC against intestinal bacteria: all anaerobic gram-positive species; format: cell-based
Finegoldia magna = test: MIC against anaerobes: Finegoldia magna; format: cell-based; conditions: Finegoldia magna (15)
C. difficile = test: MIC versus C. difficile strains; conditions: Clostridioides difficile
[2] = system: Peptostreptococcus prevotii; test: MIC against anaerobes: Peptostreptococcus prevotii; format: cell-based; conditions: Peptostreptococcus prevotii (3)
[3] = system: C. difficile clinical isolates; test: MIC via agar dilution versus 110 clinical isolates of C. difficile; format: cell-based
[4] = system: Anaerobic non-spore-forming gram-positive rods; test: MIC against intestinal bacteria: anaerobic non-spore-forming gram-positive rods; format: cell-based
E. faecium = test: MIC against other microorganisms: E. faecium
Eggerthella lenta = test: MIC against anaerobes: Eggerthella lenta; format: cell-based; conditions: Eggerthella lenta (10)
Enterococcus species = test: MIC against intestinal bacteria: Enterococcus species; format: cell-based; conditions: Enterococcus species (21)
453 bacterial isolates = test: MIC against intestinal bacteria: total for all strains; format: cell-based
[5] = system: Non-fragilis B. fragilis group species; test: MIC against anaerobes: non-fragilis B. fragilis group; format: cell-based; conditions: Bacteroides fragilis; Non-fragilis B. fragilis group species (38)
Experimental: as §1, §2

CCc1c(Cl)c(O)c(Cl)c(O)c1C(=O)O[C@H]1[C@H](O)[C@H](OC)[C@H](OCC2=CC=CC[C@H](O)C(C)=C[C@H](CC)[C@@H](O[C@@H]3OC(C)(C)[C@@H](OC(=O)C(C)C)[C@H](O)[C@@H]3O)C(C)=CC(C)=CC[C@@H]([C@@H](C)O)OC2=O)O[C@@H]1C [R-Tiacumicin B, 3-[[[6-Deoxy-4-O-(3,5-dichloro-2-ethyl-4,6-dihydroxybenzoyl)-2-O-methyl-β-D-mannopyranosyl]oxy]-methyl]-12(R)-[[6-deoxy-5-C-methyl-4-O-(2-methyl-1-oxopropyl)-β-D-lyxo-hexopyranosyl]oxy]-11(S)-ethyl-8(S)-hydroxy-18(S)-(1(R)-hydroxyethyl)-9,13,15-trimethyloxacyclooctadeca-3,5,9,13,15-pentaene-2-one]
0.25 to 2.0 µg/mL: MIC range (Finegoldia magna)
32 µg/mL: MIC90 [4]
64 µg/mL: MIC90 ([1]; All anaerobic gram-positive species (219))
<0.016 to 0.06 µg/mL: MIC range (Micromonas micros) | MIC range (Eggerthella lenta)
0.25 to 1.0 µg/mL: MIC range [2]
8 µg/mL: MIC50 (Enterococcus species) | MIC90 (Enterococcus species) | MIC50 (453 bacterial isolates; Total for all strains (453))
< 0.016 µg/mL: MIC50 (Clostridium spp. (all)) | MIC50 (Eggerthella lenta)
> 128 µg/mL: MIC50 [5] | MIC90 [5]
0.12 µg/mL: MIC50 [1]
0.03 µg/mL: MIC50 (Micromonas micros; Parvimonas micra) | MIC (C. difficile; ATCC9689) | MIC (C. difficile; ATCC17857) | MIC ([3]; Clostridioides difficile, isolate 61 5930, read-out: MIC) | MIC ([3]; Clostridioides difficile, isolate 68 6368, read-out: MIC) | MIC ([3]; Clostridioides difficile, isolate 86 6333, read-out: MIC) | MIC ([3]; Clostridioides difficile, isolate 104 6060, read-out: MIC) | MIC ([3]; Clostridioides difficile, isolate 105 6071, read-out: MIC) | MIC ([3]; Clostridioides difficile, isolate 106 6078, read-out: MIC) | MIC ([3]; Clostridioides difficile, isolate 111 6279, read-out: MIC) | MIC ([3]; Clostridioides difficile, isolate 120 6057, read-out: MIC) | MIC ([3]; Clostridioides difficile, isolate D1 1360, read-out: MIC) | MIC ([3]; Clostridioides difficile, isolate J7 4224, read-out: MIC) | MIC ([3]; Clostridioides difficile, isolate Z1 3036, read-out: MIC)
1 µg/mL: MIC50 (Finegoldia magna) | MIC90 (Finegoldia magna) | MIC50 ([4]; Anaerobic non-spore-forming gram-positive rods (63)) | MIC (E. faecium; Enterococcus faecium) | MIC (E. faecium; Strain ID # 8, E. faecium Vanc. resistant)
2.0 to 16 µg/mL: MIC range (Enterococcus species)
0.06 µg/mL: MIC90 (Clostridium spp. (all)) | MIC90 (Micromonas micros; Parvimonas micra) | MIC ([3]; Clostridioides difficile, isolate 65 5967, read-out: MIC) | MIC ([3]; Clostridioides difficile, isolate 77 6390, read-out: MIC) | MIC ([3]; Clostridioides difficile, isolate 82 6329, read-out: MIC) | MIC ([3]; Clostridioides difficile, isolate 83 6330, read-out: MIC) | MIC ([3]; Clostridioides difficile, isolate 85 6332, read-out: MIC) | MIC ([3]; Clostridioides difficile, isolate 96 6348, read-out: MIC) | MIC ([3]; Clostridioides difficile, isolate 103 6068, read-out: MIC) | MIC ([3]; Clostridioides difficile, isolate 107 6079, read-out: MIC) | MIC ([3]; Clostridioides difficile, isolate 112 6280, read-out: MIC) | MIC ([3]; Clostridioides difficile, isolate 113 6304, read-out: MIC) | MIC ([3]; Clostridioides difficile, isolate 114 386, read-out: MIC) | MIC ([3]; Clostridioides difficile, isolate 116 5702, read-out: MIC) | MIC ([3]; Clostridioides difficile, isolate 117 6026, read-out: MIC) | MIC ([3]; Clostridioides difficile, isolate 121 6072, read-out: MIC) | MIC ([3]; Clostridioides difficile, isolate AB2 1725, read-out: MIC) | MIC ([3]; Clostridioides difficile, isolate AC1 1546, read-out: MIC) | MIC ([3]; Clostridioides difficile, isolate AJ1 1557, read-out: MIC) | MIC ([3]; Clostridioides difficile, isolate AL1 1753, read-out: MIC) | MIC ([3]; Clostridioides difficile, isolate B1 832, read-out: MIC) | MIC ([3]; Clostridioides difficile, isolate BH1 4506, read-out: MIC) | MIC ([3]; Clostridioides difficile, isolate BM1 1453, read-out: MIC) | MIC ([3]; Clostridioides difficile, isolate BR1 1321, read-out: MIC) | MIC ([3]; Clostridioides difficile, isolate BT1 706, read-out: MIC) | MIC ([3]; Clostridioides difficile, isolate E1 816, read-out: MIC) | MIC ([3]; Clostridioides difficile, isolate J1 5971, read-out: MIC) | MIC ([3]; Clostridioides difficile, isolate J9 4478, read-out: MIC) | MIC ([3]; Clostridioides difficile, isolate O1 1861, read-out: MIC) | MIC ([3]; Clostridioides difficile, isolate Y1 5639, read-out: MIC) | MIC ([3]; Clostridioides difficile, isolate Y2 1459, read-out: MIC)
1020 µg/mL: MIC90 (453 bacterial isolates)
< 0.03 µg/mL: MIC90 (Eggerthella lenta)
0.125 µg/mL: MIC (C. difficile) | MIC (C. difficile; ATCC43255) | MIC ([3]; Clostridioides difficile) | MIC ([3]; isolate 64 5940) | MIC ([3]; isolate 67 6367) | MIC ([3]; isolate 70 6376) | MIC ([3]; isolate 71 6379) | MIC ([3]; isolate 72 6380) | MIC ([3]; isolate 75 6388) | MIC ([3]; isolate 76 6389) | MIC ([3]; isolate 80 6327) | MIC ([3]; isolate 81 6328) | MIC ([3]; isolate 84 6331) | MIC ([3]; isolate 87 6334) | MIC ([3]; isolate 88 6335) | MIC ([3]; isolate 90 6338) | MIC ([3]; isolate 91 6339) | MIC ([3]; isolate 93 6341) | MIC ([3]; isolate 95 6347) | MIC ([3]; isolate 98 6350) | MIC ([3]; isolate 100 6353) | MIC ([3]; isolate A1 1535) | MIC ([3]; isolate AF1 1808) | MIC ([3]; isolate AG1 3044) | MIC ([3]; isolate AH1 3430) | MIC ([3]; isolate AN1 464) | MIC ([3]; isolate AO1 287) | MIC ([3]; isolate AS1 4099) | MIC ([3]; isolate AT1 1216) | MIC ([3]; isolate AW1 4501) | MIC ([3]; isolate BE1 4307) | MIC ([3]; isolate BI1 1675) | MIC ([3]; isolate BK1 4291) | MIC ([3]; isolate BL1 716) | MIC ([3]; isolate BN1 1322) | MIC ([3]; isolate BW1 3130) | MIC ([3]; isolate BX1 4271) | MIC ([3]; isolate CF1 5922) | MIC ([3]; isolate CG1 1566) | MIC ([3]; isolate CJ1 893) | MIC ([3]; isolate CP1 5491) | MIC ([3]; isolate F1 1015) | MIC ([3]; isolate G1 1077) | MIC ([3]; isolate I1 1389) | MIC ([3]; isolate K1 4305) | MIC ([3]; isolate K14 5780) | MIC ([3]; isolate L1 1423) | MIC ([3]; isolate N1 471) | MIC ([3]; isolate R1 397) | MIC ([3]; isolate V1 1521) | MIC ([3]; isolate W1 3931) | MIC ([3]; isolate X1 1890)
